Data on one molecule can be found in ChEMBL document CHEMBL1687817, “Tigecycline population pharmacokinetics in patients with community- or hospital-acquired pneumonia” (Antimicrob Agents Chemother, 2010).

Holding throughout (assay type): ADME, organism-based
Series [1] has as its system Homo sapiens. The series is described as follows: Volume of distribution at steady state in patient with community or hospital-acquired pneumonia at […], iv loading dose followed by […] administered every 12 hrs. The conditions noted are these: in vivo.
Series [2] is described as follows: Clearance in patient with community or hospital-acquired pneumonia at […], iv loading dose followed by […] administered every 12 hrs. The conditions noted are these: human, in vivo.
Series [3] can be described thus: Volume of distribution in central compartment in patient with community or hospital-acquired pneumonia at […], iv loading dose followed by […] administered every 12 hrs. The conditions noted are these: human, in vivo, read-out: Vc.
Series [4] deals with Homo sapiens. The series is described as follows: Distributional clearance in patient with community or hospital-acquired pneumonia at […], iv loading dose followed by […] administered every 12 hrs. The conditions noted are these: in vivo.

For orientation: Vdss means a proportionality between amount in the body and measured concentration, not a real space. Low values mean little distribution into tissue, high ones wide distribution into tissue. A word on the clearance: it is the rate of elimination divided by the concentration. The low end stands for a low capacity for elimination, the high end for a high capacity for elimination. `CN(C)c1cc(NC(=O)CNC(C)(C)C)c(O)c2c1C[C@H]1C[C@H]3[C@H](N(C)C)C(O)=C(C(N)=O)C(=O)[C@@]3(O)C(O)=C1C2=O` [TIGECYCLINE] displayed a Vdss in the series with Homo sapiens [1] of 398 L. For the same molecule, the clearance in series [2] is 320 mL/min. Moreover, the Vd in series [3] worked out at 65.2 L. In the series with Homo sapiens [4], the CLd is 85.1 L/h.
